# Test results reported in patent US9738610B2, “Indazole derivatives and uses thereof” (Whitehead Institute for Biomedical Research, priority 2012, dated 2017).
# Read-outs that look alike come from different tables or passages of the source.
# Key:
# [1] = tested on: C. albicans CaCi-2; assay: Secondary single-agent (no-fluconazole) activity assay; assay type: cell-based, Candida albicans; settings: in the absence of fluconazole; read-out: Target Potency (μM) Mean ± S.E.M CaCi-2^b IC50
# Description: Clear, flat-bottom, black, 384-well plates were obtained from Corning. […] Pen/Strep was obtained from Gibco and prepared 100× in PBS. Fluconazole was obtained from Sigma and prepared in 2 mg/ml stock solution in PBS. Alamar Blue was obtained from Biosource International (Catalog No. DAL1100). Phosphate buffered solution (PBS) without calcium and magnesium was obtained from Cellgro.
# Fungal inoculum was prepared as follows: 500 μl of yeast was inoculated from cryopreserved stock into a 250-ml shaker flask containing 30 ml growth medium and shaken overnight (16 hours) at 30° C. The culture was spun down, and the broth was poured off and washed with RPMI medium. The culture was spun down again, and the broth was poured off and resuspended in RPMI medium. The OD 600 of 1 ml of fungal culture in a cuvette was read using a standard optical density reader with growth medium as a background blank. The desired volume of fungal inoculum was diluted to starting OD of the fungal inoculum of 0.00015 A600.
# Pen/Strep was added to the media to a final 1% concentration. A Combi NL (Thermo) was used to dispense 20 μl/well of assay media into all wells. Geldanamycin (1.5 mM) and fluconazole (0.2 mg/ml) were mixed for the positive control. Then, 80 nl of positive control solution was dispensed into the positive control wells using Thermo Combi nL for a final concentration of 3 μM geldanamycin and 8 μg/ml fluconazole. Then, 100 nl of test compound were pinned from the compound plates into assay plates using a CyBi-Well pin tool. A further 20 μl/well of RPMI synthetic defined medium culture was dispensed into 384-well, black plates. Fungal suspension (20 μl/well) was dispensed into all wells. The plates were incubated in a humidified (90% humidity) Liconic incubator at 37° C. without agitation for 48 hours. Alamar Blue Reagent was diluted 1:40 in Ca/Mg-free PBS. To all plates, 6.4 μl/well of the diluted Alamar Blue was added to the plates to a final dilution factor of 1:200. The plates were incubated for 2 hours at room temperature. Next, RFU of wells was read on a standard plate reader as a measure of relative fungal growth.
# [2] = tested on: C. albicans CaCi-8; assay: microbe, parasite or virus in culture; assay type: cell-based, Candida albicans
# Description: This subset was re-subjected to the primary assay and was also tested concurrently in two secondary assays. Secondary assay 1 measured chemosensitization of the more resistant CaCi-8 strain. Secondary assay 2 eliminated anything with inherently antifungal activity. […] A final assay (secondary assay 3) was incorporated to discard any compound displaying toxicity to mammalian fibroblasts. […] This screening campaign is also illustrated in FIG. 3B.
# Those that inhibited growth in the resistant strain were also tested for toxicity against Candida in the absence of fluconazole and for toxicity against mammalian cells using a fluorescence reporter assay. The positive control for screening in the Candida and mammalian cell assays was the Hsp90 inhibitor geldanamycin (acting in concert with fluconazole; FIG. 4). Compounds that passed these four hurdles were binned through use of a Saccharomyces assay to determine whether the mechanism of action might be through the Hsp90 pathway, the calcineurin pathway, or an uncategorized mechanism.
# [3] = Plasma stability; settings: % remaining in human plasma after a 5-hour incubation
# [4] = Plasma protein binding; settings: % bound in human plasma
# [5] = tested on: C. albicans CaCi-2; assay: CaCi-2 growth inhibition in the presence of 8 μg/ml fluconazole (Alamar Blue); assay type: cell-based, Candida albicans
# Description: Fluconazole was obtained from Sequoia Research Products, Ltd. and prepared in a 2 mg/ml stock solution in phosphate buffered saline (PBS). […] PBS (Catalog No. 21-040-CV) without calcium and magnesium was obtained from Cellgro. Penicillin/Streptomycin (Pen/Strep) was obtained from Gibco and prepared 100× in PBS.
# RPMI medium (1×) was prepared by dissolving 10.4 g powdered medium in 800 ml water. A buffer of 34.52 g MOPS was added. While stirring, pH was adjusted to 7.0 with 10 N NaOH. Next, 10 ml uridine solution and 50 ml glucose solution were added. The final volume was adjusted to 1000 ml, and filter sterilized.
# The following yeast strains were used in this study: C. albicans CaCi-2. Fungal inoculum was prepared as follows: 500 μl of strain was inoculated from cryopreserved stock into a 250-ml shaker flask containing 30 ml growth medium and shaken overnight at 30° C. The optical density (OD 600) of 1 ml fungal culture in a cuvette was read using a standard optical density reader (Eppendorf BioPhotometer Plus), with growth medium as a background blank. The desired volume of fungal inoculums was diluted to desired volume of fungal inoculums according to the following formula: (1/OD measured)×(Desired Final Volume of Inoculum)×0.3=Volume of fungal culture (μl) to add to desired volume of growth medium. When added to media in wells, this yields a calculated starting OD of the fungal inoculum of 0.00015.
# Fluconazole stock solution was added to the fungal inoculum to achieve 8 μg/ml. Pen/Strep was added to the media to a 1% concentration (v/v). A Thermo Combi nL was used to dispense 20 μl/well of assay media into all wells. Geldanamycin was dispensed in positive control wells using Thermo Combi nL for a final concentration of 3 μM. Then, 100 nl of test compound was pinned from compound plates into assay plates using a CyBi-Well pin tool. A further 20 μl/well of culture was dispensed into the assay media in all wells. The plates were incubated in a humidified (90% humidity) Liconic incubator at 37° C. without agitation for 48 hours. Alamar Blue was diluted 1:40 in Ca/Mg-free PBS. To all plates, […] of the diluted Alamar Blue was added to the plates to a final dilution factor of 1:200. The plates were incubated for an additional 2 hours. Then, Relative Fluorescence Intensity (RFU) of each well was read on standard plate reader as a measure of relative fungal growth.
# [6] = tested on: NIH-3T3 mammalian fibroblasts; assay: Counterscreen mammalian cell toxicity assay (fibroblast toxicity); assay type: cell-based, murine; settings: for ** CaCi-2 to anti-target fold selectivity: fibroblast IC50 over CaCi-2 IC50 with fluconazole; for IC50: footnote: in the absence of fluconazole, read-out: Anti-target Potency (μM) Mean ± S.E.M Fibroblasts^b IC50
# [7] = PBS solubility; settings: PBS
# [8] = in the presence of fluconazole, read-out: Target Potency (μM) Mean ± S.E.M CaCi-8^a IC50
# [9] = in the presence of fluconazole, read-out: Target Potency (μM) Mean ± S.E.M CaCi-2^a IC50
# [10] = 37° C., 48 hours, with 8 μg/mL (26 μM) fluconazole, average of at least three experiments, read-out: CaCi-8 IC50
# [11] = 37° C., 48 hours, with 8 μg/mL (26 μM) fluconazole, average of at least three experiments, read-out: CaCi-2 IC50
# [12] = 37° C., 48 hours, with 8 μg/mL (26 μM) fluconazole, average of at least three experiments
Structure (SMILES),IC50 [1] [µM],"IC50 [2, 8] [µM]",Plasma Stability [3],Plasma Protein Binding [4] [%],"IC50 [5, 9] [µM]","IC50 [2, 10] [µM]",other results
c1ccc(-c2n[nH]c3ccccc23)cc1 [Compound 300385],> 26,> 26,> 99%,98,3,–,–
COC(=O)Cn1nc(-c2ccccc2)c2ccccc21 [Compound 3243873],> 26,2.53 ± 1.13,< 1.0%,96,1.86 ± 0.99,–,–
COC(=O)Cn1nc(-c2ccccc2)c2ccc(F)cc21 [Compound 49835815],> 26,8.34,1.1%,97,5.1,–,–
COC(=O)Cn1nc(-c2ccccc2)c2ccc(Cl)cc21 [Compound 49835818],> 26,8.57,90%,18,3.79,–,** CaCi-2 to anti-target fold selectivity [6]: 7.9; IC50 [6]: 29.9 µM
COC(=O)Cn1nc(-c2cccc(C)c2)c2ccccc21 [Compound 49835823],> 26,1.34,4.7%,98,0.65,–,–
O=C1OCCC1n1nc(-c2ccccc2)c2ccccc21 (stereo not drawn) [Compound 49835834],> 26,> 26,PBS Solubility: <1.0 μM Plasma Protein Binding: ND Plasma Stability: <1.0% Purity (UPLC): 65%,–,–,–,PBS Solubility [7]: PBS Solubility: <1.0 μM Plasma Protein Binding: ND Plasma Stability: <1.0% Purity (UPLC): 65%
COC(=O)Cn1nc(-c2ccccc2OC)c2ccccc21 [Compound 49835850],> 26,10.2,< 1.0%,92,6.21,–,** CaCi-2 to anti-target fold selectivity [6]: 0.17; IC50 [6]: 1.54 µM
COC(=O)Cn1ncc2ccccc21 [Compound 49835852],–,–,< 1.0%,< 1.0,–,–,IC50 [6]: 0.74 µM
COC(=O)Cn1nc(-c2ccc(C(F)(F)F)cc2)c2ccccc21 [Compound 49835854],> 26,> 26,17%,97,–,–,IC50 [6]: 0.68 µM
COC(=O)Cn1nc(-c2ccccc2C)c2ccccc21 [Compound 49835865],> 26,7.25,< 1.0%,< 1.0,5.5,–,–
COC(=O)Cn1nc(-c2ccccc2)c2ccc(C)cc21 [Compound 49835872],> 26,9.62,6.5%,98,3.14,–,** CaCi-2 to anti-target fold selectivity [6]: 10; IC50 [6]: 31.6 µM
COC(=O)Cn1nc(-c2ccccc2)c2cc(C)ccc21 [Compound 49835874],> 26,5.33,< 1.0%,95,3.28,–,** CaCi-2 to anti-target fold selectivity [6]: 21; IC50 [6]: 69.5 µM
COC(=O)Cn1nc(-c2ccc(F)cc2)c2ccccc21 [Compound 49835876],> 26,10.2,< 1.0%,93,6.26,–,–
COC(=O)Cn1nc(-c2cccc(OC)c2)c2ccccc21 [Compound 49835877],> 26,1.21,2.6%,95,0.44,–,IC50 [6]: > 26 µM
COC(=O)Cn1nc(-c2ccccc2)c2cc(F)ccc21 [Compound 49835889],> 26,6.98,1.0%,> 96,4.63,–,–
COC(=O)Cn1nc(-c2ccc(OC)cc2)c2ccccc21 [Cpd 31],–,–,–,–,–,14.1 ± 6.4,"IC50 [5, 11]: 4.2 ± 1.7 µM"
COC(=O)Cn1nc(-c2ccc(F)cc2)c2ccccc21 [Cpd 32],–,–,–,–,–,12.3 ± 3.9,"IC50 [5, 11]: 8.3 ± 2.8 µM"
COC(=O)Cn1nc(-c2ccc(C(F)(F)F)cc2)c2ccccc21 [Cpd 33],–,–,–,–,–,–,"CaCi-8 IC50 (μM) [2, 12]: inactive; CaCi-2 IC50 (μM) [5, 12]: inactive"
COC(=O)Cn1nc(-c2ccc(C#N)cc2)c2ccccc21 [Cpd 34],–,–,–,–,–,20.5 ± 0.3,"CaCi-2 IC50 (μM) [5, 12]: inactive"
COC(=O)Cn1nc(-c2cccc(C)c2)c2ccccc21 [Cpd 35],–,–,–,–,–,1.9 ± 0.9,"IC50 [5, 11]: 1.1 ± 0.6 µM"
COC(=O)Cn1nc(-c2cccc(OC)c2)c2ccccc21 [Cpd 36],–,–,–,–,–,1.5 ± 0.6,"IC50 [5, 11]: 0.7 ± 0.3 µM"
COC(=O)Cn1nc(-c2cccc(N(C)C)c2)c2ccccc21 [Cpd 37],–,–,–,–,–,2 ± 0.2,"IC50 [5, 11]: 0.8 ± 0.1 µM"
COC(=O)Cn1nc(-c2cccc(F)c2)c2ccccc21 [Cpd 38],–,–,–,–,–,4.2 ± 4.1,"IC50 [5, 11]: 1.7 ± 0.4 µM"
COC(=O)Cn1nc(-c2ccccc2C)c2ccccc21 [Cpd 39],–,–,–,–,–,7.8 ± 2.6,"IC50 [5, 11]: 5.3 ± 0.5 µM"
COC(=O)Cn1nc(-c2ccccc2OC)c2ccccc21 [Cpd 40],–,–,–,–,–,11.4 ± 1.7,"IC50 [5, 11]: 9.3 ± 3.6 µM"
COC(=O)Cn1nc(-c2cc(OC)cc(OC)c2)c2ccccc21 [Cpd 41],–,–,–,–,–,–,"CaCi-8 IC50 (μM) [2, 12]: inactive; CaCi-2 IC50 (μM) [5, 12]: inactive"
COC(=O)Cn1nc(-c2cccnc2)c2ccccc21 [drawing 228],–,–,–,–,–,–,"CaCi-8 IC50 (μM) [2, 12]: inactive; CaCi-2 IC50 (μM) [5]: inactive"
COC(=O)Cn1nc(-c2cncnc2)c2ccccc21 [drawing 229],–,–,–,–,–,21.1 ± 3.3,"CaCi-2 IC50 (μM) [5, 12]: inactive"
CCc1nn(CC(=O)OC)c2ccccc12 [—Et],–,–,–,–,–,–,"CaCi-8 IC50 (μM) [2, 12]: inactive; CaCi-2 IC50 (μM) [5, 12]: inactive"
COC(=O)Cn1ncc2ccccc21 [—H],–,–,–,–,–,–,"CaCi-8 IC50 (μM) [2, 12]: inactive; CaCi-2 IC50 (μM) [5, 12]: inactive"
